Experimental data reported in patent publication US9914718B2, “Anhydrous crystalline form of S-equol” (Ausio Pharmaceuticals, LLC, priority 2014, dated 2018).

Assay: Long-term stability testing at room temperature storage conditions
Format: physicochemical
Procedure: Stability testing: To access its ability to maintain a desired chemical integrity, the stability of anhydrous crystalline polymorph of S-equol was evaluated for a period representative of the shelf-life of a pharmaceutical formulation. Anhydrous crystalline polymorph of S-equol was maintained at room temperature storage conditions, and evaluated for purity and water content.

Oc1ccc([C@H]2COc3cc(O)ccc3C2)cc1 [anhydrous crystalline S-equol, S-equol]
Appearance (0 days): white to brown | Purity (0 days): 100% HPLC area % | Water Content (0 days): <0.1 g/100 g | Appearance (626 days): white to brown | Purity (626 days): 100% HPLC area % | Water Content (626 days): 0.05 g/100 g | Appearance (867 days): white to brown | Purity (867 days): 100% HPLC area % | Water Content (867 days): 0.05 g/100 g
